Measurements: ChEMBL document CHEMBL3045325, “Comparative Studies of Elicitors That Induce Phytoalexin in Oats” (1996)
Active and inactive are the calls of the source. The calls are words filed in the database; no cut-off is given here.

Legend:
Avena sativa [1] = experiment: Induction of phytoalexin secretion in Avena sativa Shokan-1 leaf lower epidermis assessed as amount of avenanthramide G at 0.1 mg/ml by HPLC analysis relative to control; format: functional
Avena sativa [2] = experiment: Induction of electrolyte leakage in Avena sativa Shokan-1 leaf lower epidermis at 0.1 mg/ml after 24 hr by conductivity test; format: functional, organism-based
Avena sativa [3] = experiment: Induction of phytoalexin secretion in Avena sativa Pc-2 leaf lower epidermis assessed as amount of avenanthramide G at 0.1 mg/ml by HPLC analysis relative to control; format: functional, organism-based
Avena sativa [4] = experiment: Induction of phytoalexin secretion in Avena sativa Pc-2 leaf lower epidermis assessed as amount of avenanthramide B at 0.1 mg/ml by HPLC analysis relative to control; format: functional, organism-based
Avena sativa [5] = experiment: Induction of phytoalexin secretion in Avena sativa Pc-2 leaf lower epidermis assessed as amount of avenanthramide A at 0.1 mg/ml by HPLC analysis relative to control; format: functional, organism-based
Avena sativa [6] = experiment: Induction of phytoalexin secretion in Avena sativa Pc-2 leaf lower epidermis assessed as amount of avenanthramide L at 0.1 mg/ml by HPLC analysis relative to control; format: functional, organism-based
Avena sativa [7] = experiment: Induction of phytoalexin secretion in Avena sativa Shokan-1 leaf lower epidermis assessed as amount of avenanthramide L at 0.1 mg/ml by HPLC analysis relative to control; format: functional
Avena sativa [8] = experiment: Induction of phytoalexin secretion in Avena sativa Shokan-1 leaf lower epidermis assessed as amount of avenanthramide B at 0.1 mg/ml by HPLC analysis relative to control; format: functional
Avena sativa [9] = experiment: Induction of phytoalexin secretion in Avena sativa Shokan-1 leaf lower epidermis assessed as amount of avenanthramide A at 0.1 mg/ml by HPLC analysis relative to control; format: functional
Avena sativa [10] = experiment: Induction of phytoalexin avenanthramide A secretion in Avena sativa Shokan-1 leaf lower epidermis at 0.1 mg/ml after 24 hr in presence of CaCl2; format: functional, organism-based
Avena sativa [11] = experiment: Induction of phytoalexin secretion in Avena sativa Pc-2 leaf lower epidermis assessed as amount of avenanthramide D at 0.1 mg/ml by HPLC analysis relative to control; format: functional, organism-based
Avena sativa [12] = experiment: Induction of phytoalexin secretion in Avena sativa Shokan-1 leaf lower epidermis assessed as amount of avenanthramide D at 0.1 mg/ml by HPLC analysis relative to control; format: functional
Avena sativa [13] = experiment: Induction of phytoalexin secretion in Avena sativa Shokan-1 leaf lower epidermis assessed as amount of avenanthramide G at 1 mg/ml by HPLC analysis relative to control; format: functional
Avena sativa [14] = experiment: Induction of phytoalexin secretion in Avena sativa Pc-2 leaf lower epidermis assessed as amount of avenanthramide B at 1 mg/ml by HPLC analysis relative to control; format: functional, organism-based
Avena sativa [15] = experiment: Induction of phytoalexin secretion in Avena sativa Shokan-1 leaf lower epidermis assessed as amount of avenanthramide D at 1 mg/ml by HPLC analysis relative to control; format: functional
Avena sativa [16] = experiment: Induction of phytoalexin avenanthramide A secretion in Avena sativa Shokan-1 leaf lower epidermis at 1 mg/ml after 24 hr in presence of CaCl2; format: functional, organism-based
Avena sativa [17] = experiment: Induction of phytoalexin secretion in Avena sativa Shokan-1 leaf lower epidermis assessed as amount of avenanthramide L at 1 mg/ml by HPLC analysis relative to control; format: functional
Avena sativa [18] = experiment: Induction of phytoalexin secretion in Avena sativa Pc-2 leaf lower epidermis assessed as amount of avenanthramide G at 1 mg/ml by HPLC analysis relative to control; format: functional, organism-based
Avena sativa [19] = experiment: Induction of phytoalexin avenanthramide A secretion in Avena sativa Shokan-1 leaf lower epidermis at 1 mg/ml after 24 hr; format: functional, organism-based
Avena sativa [20] = experiment: Induction of phytoalexin avenanthramide A secretion in Avena sativa Shokan-1 leaf lower epidermis at 1 mg/ml upto 24 hr; format: functional, organism-based
Avena sativa [21] = experiment: Induction of phytoalexin secretion in Avena sativa Shokan-1 leaf lower epidermis assessed as amount of avenanthramide B at 1 mg/ml by HPLC analysis relative to control; format: functional
Avena sativa [22] = experiment: Induction of phytoalexin secretion in Avena sativa Pc-2 leaf lower epidermis assessed as amount of avenanthramide D at 1 mg/ml by HPLC analysis relative to control; format: functional, organism-based
Avena sativa [23] = experiment: Induction of electrolyte leakage in Avena sativa Shokan-1 leaf lower epidermis at 1 mg/ml after 24 hr by conductivity test; format: functional, organism-based
Avena sativa [24] = experiment: Induction of phytoalexin secretion in Avena sativa Pc-2 leaf lower epidermis assessed as amount of avenanthramide A at 1 mg/ml by HPLC analysis relative to control; format: functional, organism-based
Avena sativa [25] = experiment: Induction of phytoalexin secretion in Avena sativa Pc-2 leaf lower epidermis assessed as amount of avenanthramide L at 1 mg/ml by HPLC analysis relative to control; format: functional, organism-based
Avena sativa [26] = experiment: Induction of phytoalexin secretion in Avena sativa Shokan-1 leaf lower epidermis assessed as amount of avenanthramide A at 1 mg/ml by HPLC analysis relative to control; format: functional
Avena sativa [27] = experiment: Induction of electrolyte leakage in Avena sativa Pc-2 leaf lower epidermis at 1 ng/ml after 24 hr in presence of CaCl2; format: functional, organism-based
Avena sativa [28] = experiment: Induction of electrolyte leakage in Avena sativa Pc-2 leaf lower epidermis at 1 ng/ml after 24 hr by conductivity test; format: functional, organism-based
Avena sativa [29] = experiment: Induction of phytoalexin secretion in Avena sativa Pc-2 leaf lower epidermis assessed as amount of avenanthramide D at 1 ng/ml by HPLC analysis relative to control; format: functional
Avena sativa [30] = experiment: Induction of phytoalexin secretion in Avena sativa Pc-2 leaf lower epidermis assessed as amount of avenanthramide G at 1 ng/ml by HPLC analysis relative to control; format: functional
Avena sativa [31] = experiment: Induction of phytoalexin avenanthramide A secretion in Avena sativa Pc-2 leaf lower epidermis at 5 mg/ml after 24 hr; format: functional, organism-based
Avena sativa [32] = experiment: Induction of phytoalexin secretion in Avena sativa Pc-2 leaf lower epidermis assessed as amount of avenanthramide A at 1 ng/ml by HPLC analysis relative to control; format: functional
Avena sativa [33] = experiment: Induction of phytoalexin avenanthramide A secretion in Avena sativa Pc-2 leaf lower epidermis at 100 ng/ml after 24 hr; format: functional, organism-based
Avena sativa [34] = experiment: Induction of phytoalexin secretion in Avena sativa Pc-2 leaf lower epidermis assessed as amount of avenanthramide L at 1 ng/ml by HPLC analysis relative to control; format: functional
Avena sativa [35] = experiment: Induction of phytoalexin avenanthramide A secretion in Avena sativa Pc-2 leaf lower epidermis at 1 ng/ml after 24 hr in presence of CaCl2; format: functional, organism-based

## N[C@H]1[C@H](O[C@H]2[C@H](O)[C@@H](N)[C@H](O[C@H]3[C@H](O)[C@@H](N)[C@H](O[C@H]4[C@H](O)[C@@H](N)[C@H](O[C@H]5[C@H](O)[C@@H](N)C(O)O[C@@H]5CO)O[C@@H]4CO)O[C@@H]3CO)O[C@@H]2CO)O[C@H](CO)[C@@H](O)[C@@H]1O (stereo not given in full) [CHITOPENTAOSE]
Avena sativa [1]
  fold change (FC): 13
Avena sativa [2]
  Activity: Active
Avena sativa [3]
  Activity: inactive
Avena sativa [4]
  Activity: inactive
Avena sativa [5]
  Activity: inactive
Avena sativa [6]
  Activity: inactive
Avena sativa [7]
  fold change (FC): 1.4
Avena sativa [8]
  fold change (FC): 3.4
Avena sativa [9]
  fold change (FC): 100
Avena sativa [10]
  Activity: inactive
Avena sativa [11]
  Activity: inactive
Avena sativa [12]
  fold change (FC): 10.7

## CC(=O)N[C@H]1[C@H](O[C@H]2[C@H](O)[C@@H](NC(C)=O)[C@H](O[C@H]3[C@H](O)[C@@H](NC(C)=O)C(O)O[C@@H]3CO)O[C@@H]2CO)O[C@H](CO)[C@@H](O[C@@H]2O[C@H](CO)[C@@H](O[C@@H]3O[C@H](CO)[C@@H](O)[C@H](O)[C@H]3NC(C)=O)[C@H](O)[C@H]2NC(C)=O)[C@@H]1O (stereo not given in full) [N-ACETYLCHITOPENTAOSE]
Avena sativa [13]
  fold change (FC): 2.8
Avena sativa [14]
  Activity: inactive
Avena sativa [15]
  fold change (FC): 1.9
Avena sativa [16]
  Activity: inactive
Avena sativa [17]
  fold change (FC): 20.4
Avena sativa [18]
  Activity: inactive
Avena sativa [19]
  Activity: inactive
Avena sativa [20]
  Activity: Active
Avena sativa [21]
  fold change (FC): 26
Avena sativa [22]
  Activity: inactive
Avena sativa [23]
  Activity: inactive
Avena sativa [24]
  Activity: inactive
Avena sativa [25]
  Activity: inactive
Avena sativa [26]
  fold change (FC): 100

## CC(C)C1OC2=C(CC(C(=O)O)NC(=O)/C(=C/Cl)NC(=O)C1NC(=O)C(NC(=O)C(CC(C)C(Cl)Cl)NC(=O)C(O)O)C(O)CCCN)C(=O)CC2 (stereo not given) [VICTORIN D]
Avena sativa [27]
  Activity: inactive
Avena sativa [28]
  Activity: Active
Avena sativa [29]
  fold change (FC): 38.4
Avena sativa [30]
  fold change (FC): 84.6
Avena sativa [31]
  Activity: inactive
Avena sativa [32]
  fold change (FC): 100
Avena sativa [33]
  Activity: Active
Avena sativa [34]
  fold change (FC): 3
Avena sativa [35]
  Activity: inactive
